Results as given in PMC10413441 (Chembiochem : a European journal of chemical biology, 2023).

Columns and labels:
CUTO9 cells = assay: wound-healing assay in CUTO9 cells; format: cell-based, human; conditions: for suppression of cell migration (wound closure) / impact on wound closure: 24 hours; for inhibition at 1 µM: Homo sapiens, 24 h, read-out: inhibition of wound closure
[1] = system: YAP1 phosphorylation at S127; assay: immunoblot analysis of Hippo signaling in CUTO9 cells; format: cell-based, human; conditions: 2 hours, brigatinib, lorlatinib 3 μM each, MRT67307 1 μM
A549 NSCLC cells = assay: wound-healing assay in A549 cells; conditions: for wound closure inhibition: A549 cells (no EML4-ALK, mutant KRAS), 48 hours
MARK2/3 = assay: immunoblotting of cross-competition pulldowns; format: binding, human; conditions: CUTO9 cells pre-treated with 2.5 μM TKI for 24 hours, immunoblot
[2] = cited from earlier work
MARK3 = conditions: read-out: previously reported in vitro IC50; cited from earlier work
MARK2 = conditions: read-out: reported in vitro IC50; cited from earlier work

SMILES | phosphorylation of YAP1 at S127 [1] | suppression of cell migration (wound closure) (CUTO9 cells; CUTO9 cells, 3 μM) | inhibition at 1 µM (CUTO9 cells) [%] | wound closure inhibition (A549 NSCLC cells) | competition for binding of MARK2/3 to i-brigatinib beads (MARK2/3) | impact on wound closure (CUTO9 cells; CUTO9 cells) | also measured
O=C(NCCCNc1nc(Nc2cccc(CN3CCOCC3)c2)ncc1C1CC1)C1CCC1 [MRT67307] | induced phosphorylation of YAP1 at S127 | – | – | – | – | – | reduction of cell migration (CUTO9 cells; CUTO9 cells, 1 μM): approximately 25%; reduction of cell migration (CUTO9 cells; CUTO9 cells, 3 μM): ~40%
CCc1cc2c(cc1N1CCC(N3CCOCC3)CC1)C(C)(C)c1[nH]c3cc(C#N)ccc3c1C2=O [alectinib] | – | ~45% | ~30 | wound closure inhibition observed | more completely competed | – | –
COc1cc(N2CCC(N3CCN(C)CC3)CC2)ccc1Nc1ncc(Cl)c(Nc2ccccc2P(C)(C)=O)n1 [brigatinib] | induced phosphorylation of YAP1 at S127 | approximately 70% | ~40 | wound closure inhibition observed | more completely competed | – | reported clinically relevant concentration ([2]; clinical): 2.9 µM; Cmax ([2]; read-out: plasma Cmax, reported, no reference given): 2500 nM; IC50 (MARK3): 127 nM; competition for EML4-ALK (EML4-ALK): strongest extent of competition; IC50 (MARK2): 93 nM
C[C@@H](Oc1cc(-c2cnn(C3CCNCC3)c2)cnc1N)c1c(Cl)ccc(F)c1Cl [crizotinib] | – | – | – | – | – | no impact on wound closure | –
CNC(=O)c1ccc(Nc2ncc(C(F)(F)F)c(NCc3nccnc3N(C)S(C)(=O)=O)n2)cc1 [defactinib] | – | – | – | – | – | – | effects on migration (CUTO9 cells; CUTO9 cells): minor, but notable effects; effects on migration (A549 NSCLC cells; A549 cells): minor, but notable effects
C[C@H]1Oc2cc(cnc2N)-c2c(nn(C)c2C#N)CN(C)C(=O)c2ccc(F)cc21 [lorlatinib] | not observed | – | – | – | – | no impact on wound closure | –
